Results reported in patent US4965270A, “Purine derivatives” (Beecham Group p.l.c., priority 1989, dated 1990).
In brackets after ≈: the same amount, converted by molar mass.

Key:
Type in all cases: cell-based
[1] = system: visna virus (strain K184); test: CPE inhibition test (established monolayer), visna virus; details: Visna-maedi virus; K184 strain in SCP cells; minimum concentration giving complete protection of the cell monolayers
Protocol: 4. CPE Inhibition Test (Established Monolayer) for Lentiviruses
3×10^4 sheep choroid plexus (SCP) cells were plated into individual wells of a 96 well microtitre plate in 100 μl of Eagle's MEM with Hanks salts containing 10% heat inactivated foetal calf serum (FCS). When monolayers had become established (after 1 or 2 days growth) they were washed with 200 μl of maintenance medium (Eagle's MEM with Hanks salts containing 0.5% FCS) and infected with 100μl of visna virus (strain K184) in maintenance medium (30 TCID50/ ml). Test samples were diluted with maintenance medium in further 96 well microtitre plates over the range 200-0.09 μg/ml by 3-fold dilution steps. 100 μl of the diluted samples was then transferred directly onto virus-infected monolayers (final concentration range therefore 100-0.045 μg/ml) and incubated at 37° C. in a humidified, 5% CO2 incubation until virus-induced CPE was maximal in the untreated virus-infected controls (usually 12-14 days). The plates were fixed with formal saline and stained with crystal violet.
Virus-induced CPE was then scored microscopically and the minimum concentration of sample giving complete protection of the cell monolayers (MIC) determined.

[2] = system: herpes simplex virus 2 (HSV-2; strain MS); test: Plaque reduction test, herpes simplex virus 2 (strain MS); details: Human alphaherpesvirus 2, MRC5, MS strain in MRC-5 cells; each figure is a single test; read-out: IC50, Herpes Simplex Type 2 virus
Protocol: Plaque Reduction Test for Heroes Simplex viruses 1 and 2. Cells (vero or MRC-5) were grown to confluence in 24 well multi-dishes (well diameter 1.5 cm). The drained cell monolayers were each infected with approximately 50 infectious particles of herpes simplex virus 1 (HSV-1; strain HFEM) or herpes simplex virus 2 (HSV-2; strain MS) in 100 μof phosphate-bufferedsaline. The virus was adsorbed for 1 hour at room temperature. After adsorption, residual inoculum was removed from each well and replaced with 0.5ml of Eagle's MEM containing 5% newborn calf serum and 0.9% agarose (A37). Once the agarose had set, dilutions of the test compound, which had been prepared in Eagle's MEM (containing 5% newborn calf serum), were added, each well receiving 0.5ml of liquid overlay. The test compound was diluted to give the following series of […] concentrations: 200, 60, 20, 6 . . . 0.06 μg/ml; final concentrations in the assay ranged, therefore, between 100 μg/ml and 0.03 μg/ml. […]
Cultures from 1 and 2 were fixed in formal saline, the agarose overlays were carefully washed off, and then the cell monolayers were stained with carbol fuchsin. […] In addition, the monolayers were examined for evidence of drug-induced cytotoxicity; the minimum concentration at which cytotoxicity occurs was recorded.

[3] = system: herpes simplex virus 1, strain SC16; test: CPE inhibition test (replicating cells), herpes simplex virus 1 (strain SC16); details: Human alphaherpesvirus 1, SC16, MRC5, SC16 strain in MRC-5 cells; each figure is a single test; read-out: IC50, Herpes Simplex Type 1 virus
Excerpt: 3. CPE Inhibition Test (Replicating Cells) for Herpes Simplex Virus 1 MRC-5 cells (in Eagles MEM containing 5% newborn calf serum) were infected in suspension with herpes simplex virus 1, strain SC16 (approximately one infectious particle per 10 cells). One hundred microliters of the infected cell suspension (containing approximately 2× 10^4 cells) were dispensed into each well of a 96 well microtitre plate containing an equal volume of the test drug in medium (Eagles MEM containing 5% newborn calf serum) at concentrations ranging from 200 to 0.09 μg/ml (3-fold dilution steps); final concentrations therefore ranged between 100 to 0.045 μg/ml. The plates were then incubated at 37° C. in a humidified atmosphere of 5% CO2 for 3 days when the virus-induced cytopathic effect (CPE) in the control wells reached 100%. The plates were fixed in formal saline and stained with carbol fuchsin. […] Plates of uninfected cells were set up in parallel to determine the minimum concentration of test compound which caused cytotoxicity.

Row | SMILES | MIC [1] [mg/L] | IC50 [2] [mg/L] | IC50 [3] [mg/L]
1 | Nc1nc2c(ncn2OCCCO)c(=O)[nH]1 [Example 1, 9-(3-Hydroxyprop-1-oxy)guanine] | 3 (≈ 13.3 µM) | – | –
2 | Nc1nc2c(ncn2OCC(CO)CO)c(=O)[nH]1 [Example 5, 9-(3-Hydroxy-2-hydroxymethylprop-1-oxy)guanine] | 0.1 (≈ 0.392 µM) | – | –
3 | Nc1nc2c(ncn2OCC(O)CO)c(=O)[nH]1 (stereo not shown) [Example 6, 9-(2,3-Dihydroxyprop-1-oxy)guanine] | 10 (≈ 41.5 µM) | – | –
4 | Nc1nc2c(ncn2OC(CO)CCO)c(=O)[nH]1 (stereo not shown) [Example 8, 9-(1,4-Dihydroxybut-2-oxy)guanine] | 30 (≈ 118 µM) | – | –
5 | Nc1nc2c(ncn2OC[C@@H](O)CO)c(=O)[nH]1 [Example 31, (S)-9-(2,3-Dihydroxyprop-1-oxy)guanine] | 10 (≈ 41.5 µM) | 0.06 (≈ 0.249 µM) | 0.7 (≈ 2.9 µM)
